{"source": "patent US7560473B2", "about": "(Institute of Pharmacology and Toxicology Academy of …, priority 2001, dated 2009)", "key": {"[1]": {"system": "outward potassium currents in smooth muscle cells derived from intrapulmonary arteries", "assay": "Whole cell recording of outward potassium currents in intrapulmonary arterial SMCs and glibenclamide antagonism", "type": "cell-based, Wistar rats", "method": "Effects of Compound 1 on Potassium Currents in Isolated Intrapulmonary arterial SMCs and Glibenclamide Antagonism\nThe outward potassium currents were recorded in smooth muscle cells derived from intrapulmonary arteries of normotensive rats. Cells were sealed, clamped at −70 mV and depolarized to +50 mV at an increasing step of 10 mV with 100 ms duration. After application of compound 1 at the concentration of 10 μmol L^−1, the amplitude of the currents in 5/8 cells was increased to 115.4±2.8% compared with control recorded before compound application (P<0.01 n=5). While in the presence of both compound 1 and glibenclamide at the concentration of 10 μmol L^−1 and 30 μmol L^−1 respectively, the amplitude of the outward potassium currents in 7/7 cells was detected to be 83.1±8.3% of control, which was decreased compared with the presence of compound 1 only (P<0.01 n=7).\n2. Preparation of smooth muscle cells from intrapulmonary arteries: Male Wistar rats were killed by decapitation. The intrapulmonary arteries were isolated and moved quickly into physiological salt solutions (PSS, 4° C.) Then the arteries were cut longitudinally and cut into small segments after scraping off the endothelium gently with a cotton swab. The fragments were then incubated at 37° C. in Ca^2+-free PSS for 20 to 30 minutes. […]"}, "[2]": {"system": "jirds", "assay": "Pan-cerebral ischemia-reperfusion injury in jirds (BCAO)", "type": "in vivo", "settings": "7 days, dosage-dependent", "method": "Biological Activity Experiment 7 The Protective Effects of compound 1 on Pan-Cerebral Ischemia-Reperfusion Injury in Jirds\nThe methods of biological activity experiment were carried out as follows: equal amounts of male and female jirds (60-70 g) were subjected to bilateral cervical aorta occlusion (BCAO) under narcotism. The drugs or equal amounts of physiological saline solution were injected peritoneally at 30 min before occlusion. After the blood flow in the bilateral cervical aorta was blocked for 5 min, reperfusion was restored and the drug was administered once a day for 7 days. During the BCAO, the body temperature was maintained at 37° C. In the control group, the cervical aorta was only exposed, while not blocked for blood flow. The animals were divided in 6 groups randomly: control group, ischemic group and compound-treated group (0.5, 1.0, 2.0 and 4.0 mg.kg^−1, ip). 7 days after BCAO, the animals were deeply anesthetized by injecting peritoneally 80 mg.kg^−1 pentobarbitol sodium, and perfused with 50 mL physiological saline solution and 4% paraformaldehyde through heart. The brain was dissected, immersed in 4% paraformaldehyde for 24 h, dehydrated, cleared, embedded with paraffin, sectioned and stained with HE. TUNEL staining was employed to detect the nerve apoptosis."}, "[3]": {"system": "outward potassium currents of rat tail arterial SMCs", "assay": "Whole cell recording of outward potassium currents in rat tail arterial SMCs", "type": "cell-based, Wistar rats", "settings": "outward potassium current amplitude before compound application, same cells; X ± SD n = 5", "excerpt": "Biological activity experiments 6. The effects of novel compounds on potassium currents in isolated arterial vascular smooth muscle cells (SMCs).\nThe outward currents were, elicited in rat tail arterial SMCs by superfusing extracellular solution under whole cell recording configuration that the depolarizing pulse were applied from −30 mV to +100 mV with the holding potential of −40 mV in 100 ms, 10 mV clamp steps, a frequency of 5 KHz. The compounds were applied in the bath at the concentrations of 100 μmol L^−1. The amplitude of the outward potassium currents was recorded before and after compound application Values were expressed as means±SD. Statistical significance between two groups was evaluated by student's t-test for paired data * P<0.05 **P<0.01 vs control.\n1. Preparation of single smooth muscle cells from rat tail arteries: Male Wistar rats (200-250 g) were killed by exsanguination. The tail artery was dissected out and transferred into cold physiological salt solution (PSS) of the following composition (in mM): NaCl 118.3, KCl 4.7, KH2PO4 1.2, MgSO4 1.2, NaHCO3 25.0, CaCl2 2.5, EDTA 0.026 and Glucose 5.0 pH7.4. With the use of a dissecting microscope, the connective tissues were removed and the artery was cut open longitudinally. Endothelium was removed carefully with a cotton swab then the artery was cut into segments with 1 mm long and placed in 4° C. the extracellular solution containing (in mM) NaCl 130, KCl 5, MgCl2 1.2, HEPES 10, Glucose 10, pH7.2 for 20 min. After this incubation, the medium was changed to enzyme solution which was composed of collagenase I (1 mg ml^−1), papain (5 mg ml^−) and bovine serum albumin (2 mg ml^−1). The tissues, were incubated in this solution for 40 min, and then rinsed three times triturated using a fire-polished Pasteur pipette until the medium turned cloudily. The cell suspension was stored in the refrigerator at 4° C.\n3. Whole cell recordings: A bath dish with the smooth muscle cells (SMCs) attached and superfused with the extracellular solution at a flow rate of 2 ml min^−1 was mounted onto the stage of an inverted-phase contrast microscope. The microelectrodes having a resistance of (5-8 MΩ) were made from boroscilicate thin-wall glass capillaries, using an automatic multiple-stage, electronic puller (PP830 Japan) and then heat-polished. After establishing a high resistance seal, the patch membrane was disrupted by negative pressure. A commercial patch clamp amplifier (Axon 200B) was used to generate and apply voltages and sample current signals from the cell."}}}
{"smiles": "CC(C)NC(C)(C)C(C)C", "note": "[compound 1, N-(1-methylethyl)-2,3-dimethyl-2-butylamine]", "values": [{"measurement": "amplitude of the outward potassium currents compared with control", "setting": "[1]; compound 1 10 μmol L^−1, 5/8 cells, n=5", "value": "115.4±2.8", "unit": "%"}, {"measurement": "amplitude of the outward potassium currents, of control", "setting": "[1]; compound 1 10 μmol L^−1 in the presence of glibenclamide 30 μmol L^−1, 7/7 cells, n=7", "value": "83.1±8.3", "unit": "%"}, {"measurement": "number of dead pyramidal nerve of hippocampal CA1 region (HE staining)", "setting": "[2]; 0.5-4.0 mg.kg^−1.d^−1 ip", "value": "significantly decreased the number of dead pyramidal nerve"}, {"measurement": "apoptosis of pyramidal nerve of hippocampal CA1 region (TUNEL)", "setting": "[2]; 0.5-4.0 mg.kg^−1 ip", "value": "significantly alleviate the apoptosis"}, {"measurement": "Currents, Control (before compound application)", "setting": "[3]", "value": "0.41 ± 0.08", "unit": "nA"}]}
